Data from ChEMBL document CHEMBL5131426, “Novel hydrazone derivatives of N-amino-11-azaartemisinin with high order of antimalarial activity against multidrug-resistant Plasmodium yoelii nigeriensis in Swiss mice via intramuscular route” (Bioorg Med Chem Lett, 2022).

Assays:
[1] = system: Plasmodium yoelii nigeriensis; assay: Antimalarial activity against multidrug-resistant Plasmodium yoelii nigeriensis infected in Swiss mouse assessed as inhibition of parasitemia at 24 mg/kg, po for 4 days measured on day 4 relative to control; format: functional; conditions: 96 h, time 4 day
[2] = system: Plasmodium yoelii nigeriensis; assay: Antimalarial activity against multidrug-resistant Plasmodium yoelii nigeriensis infected in Swiss mouse assessed as inhibition of parasitemia at 12 mg/kg, po for 4 days measured on day 4 relative to control; format: functional; conditions: 96 h, time 4 day
[3] = system: Plasmodium yoelii nigeriensis; assay: Antimalarial activity against multidrug-resistant Plasmodium yoelii nigeriensis infected in Swiss mouse assessed as inhibition of parasitemia at 12 mg/kg, IM for 4 days measured on day 4 relative to control; format: functional; conditions: 96 h, time 4 day
[4] = Toxicity in Swiss mouse infected with multidrug-resistant Plasmodium yoelii nigeriensis assessed as animal survival at 24 mg/kg, IM for 4 days measured on day 28; format: organism-based; conditions: in vivo, time 4 day, read-out: Activity
[5] = Toxicity in Swiss mouse infected with multidrug-resistant Plasmodium yoelii nigeriensis assessed as animal survival at 12 mg/kg, IM for 4 days measured on day 28; format: organism-based; conditions: in vivo, time 4 day; for survival at 96 h: Swiss, read-out: Activity
[6] = system: Plasmodium yoelii nigeriensis; assay: Antimalarial activity against multidrug-resistant Plasmodium yoelii nigeriensis infected in Swiss mouse assessed as inhibition of parasitemia at 48 mg/kg, po for 4 days measured on day 4 relative to control; format: functional; conditions: 96 h, time 4 day
[7] = system: Plasmodium yoelii nigeriensis; assay: Antimalarial activity against multidrug-resistant Plasmodium yoelii nigeriensis infected in Swiss mouse assessed as inhibition of parasitemia at 48 mg/kg, IM for 4 days measured on day 4 relative to control; format: functional; conditions: 96 h, time 4 day
[8] = system: Plasmodium yoelii nigeriensis; assay: Antimalarial activity against multidrug-resistant Plasmodium yoelii nigeriensis infected in Swiss mouse assessed as inhibition of parasitemia at 24 mg/kg, IM for 4 days measured on day 4 relative to control; format: functional; conditions: 96 h, time 4 day
[9] = Toxicity in Swiss mouse infected with multidrug-resistant Plasmodium yoelii nigeriensis assessed as animal dead at 48 mg/kg, po for 4 days measured on day 28; format: organism-based; conditions: in vivo, 96 h, time 4 day
[10] = Toxicity in Swiss mouse infected with multidrug-resistant Plasmodium yoelii nigeriensis assessed as animal survival at 48 mg/kg, IM for 4 days measured on day 28; format: organism-based; conditions: in vivo, 96 h, time 4 day
[11] = Toxicity in Swiss mouse infected with multidrug-resistant Plasmodium yoelii nigeriensis assessed as animal survival at 24 mg/kg, po for 4 days measured on day 28; format: organism-based; conditions: in vivo, time 4 day; for Activity: po, 24 mg/kg, 96 h
[12] = Toxicity in Swiss mouse infected with multidrug-resistant Plasmodium yoelii nigeriensis assessed as animal dead at 12 mg/kg, po for 4 days measured on day 28; format: organism-based; conditions: in vivo, 96 h, time 4 day
[13] = system: Plasmodium yoelii nigeriensis; assay: Antimalarial activity against multidrug-resistant Plasmodium yoelii nigeriensis infected in Swiss mouse assessed as inhibition of parasitemia at 6 mg/kg, po for 4 days measured on day 4 relative to control; format: functional; conditions: 96 h, time 4 day
[14] = system: Plasmodium yoelii nigeriensis; assay: Antimalarial activity against multidrug-resistant Plasmodium yoelii nigeriensis infected in Swiss mouse assessed as inhibition of parasitemia at 3 mg/kg, IM for 4 days measured on day 4 relative to control; format: functional; conditions: 96 h, time 4 day
[15] = Toxicity in Swiss mouse infected with multidrug-resistant Plasmodium yoelii nigeriensis assessed as animal survival at 6 mg/kg, IM for 4 days measured on day 28; format: organism-based; conditions: in vivo, time 4 day
[16] = Toxicity in Swiss mouse infected with multidrug-resistant Plasmodium yoelii nigeriensis assessed as animal survival at 12 mg/kg, po for 4 days measured on day 28; format: organism-based; conditions: in vivo, 96 h, time 4 day
[17] = Toxicity in Swiss mouse infected with multidrug-resistant Plasmodium yoelii nigeriensis assessed as animal dead at 6 mg/kg, po for 4 days measured on day 28; format: organism-based; conditions: in vivo, 96 h, time 4 day
[18] = Toxicity in Swiss mouse infected with multidrug-resistant Plasmodium yoelii nigeriensis assessed as animal dead at 3 mg/kg, IM for 4 days measured on day 28; format: organism-based; conditions: in vivo, 96 h, time 4 day
[19] = system: Plasmodium yoelii nigeriensis; assay: Antimalarial activity against multidrug-resistant Plasmodium yoelii nigeriensis infected in Swiss mouse assessed as inhibition of parasitemia at 6 mg/kg, IM for 4 days measured on day 4 relative to control; format: functional; conditions: 96 h, time 4 day
[20] = Toxicity in Swiss mouse infected with multidrug-resistant Plasmodium yoelii nigeriensis assessed as animal dead at 24 mg/kg, po for 4 days measured on day 28; format: organism-based; conditions: in vivo, 96 h, time 4 day
[21] = Toxicity in Swiss mouse infected with multidrug-resistant Plasmodium yoelii nigeriensis assessed as animal dead at 12 mg/kg, IM for 4 days measured on day 28; format: organism-based; conditions: in vivo, 96 h, time 4 day

| Compound | inhibition in vivo at 24 mg/kg [1] | inhibition in vivo at 12 mg/kg [3] | survival at 96 h [5] | other results |
| --- | --- | --- | --- | --- |
| C[C@@H]1CC[C@H]2[C@@H](C)C(=O)N(/N=C/c3cccs3)[C@@H]3O[C@@]4(C)CC[C@@H]1[C@@]23OO4 | 100% | 100% |  | inhibition in vivo at 12 mg/kg [2]: 100% |
| C[C@@H]1CC[C@H]2[C@@H](C)C(=O)N(/N=C/c3ccc[nH]3)[C@@H]3O[C@@]4(C)CC[C@@H]1[C@@]23OO4 | 100% | 100% |  | survival at 96 h [4]: 40% |
| C[C@@H]1CC[C@H]2[C@@H](C)C(=O)N(N=C3C4CC5CC(C4)CC3C5)[C@@H]3O[C@@]4(C)CC[C@@H]1[C@@]23OO4 | 100% | 100% | 20% |  |
| C[C@@H]1CC[C@H]2[C@@H](C)C(=O)O[C@@H]3O[C@@]4(C)CC[C@@H]1[C@]32OO4 [ARTEMISININ] |  |  |  | inhibition in vivo at 48 mg/kg [6]: 100%; inhibition in vivo at 48 mg/kg [7]: 100%; inhibition in vivo at 24 mg/kg [8]: 100%; Activity [9]: Toxic; Activity [10]: Non-Toxic |
| COc1ccc(/C=N/N2C(=O)[C@H](C)[C@@H]3CC[C@@H](C)[C@@H]4CC[C@@]5(C)OO[C@]43[C@H]2O5)cc1 | 100% | 100% | 60% | inhibition in vivo at 12 mg/kg [2]: 100%; Activity [11]: Non-Toxic; Activity [12]: Toxic |
| C[C@@H]1CC[C@H]2[C@@H](C)C(=O)N(/N=C/c3ccccc3O)[C@@H]3O[C@@]4(C)CC[C@@H]1[C@@]23OO4 | 100% | 100% | 40% |  |
| C[C@@H]1CC[C@H]2[C@@H](C)C(=O)N(/N=C/c3ccc(Br)cc3)[C@@H]3O[C@@]4(C)CC[C@@H]1[C@@]23OO4 | 100% | 100% | 60% |  |
| C[C@@H]1CC[C@H]2[C@@H](C)C(=O)N(N=C3c4ccccc4-c4ccccc43)[C@@H]3O[C@@]4(C)CC[C@@H]1[C@@]23OO4 | 100% | 100% |  | inhibition in vivo at 12 mg/kg [2]: 100%; inhibition in vivo at 6 mg/kg [13]: 98%; inhibition in vivo at 3 mg/kg [14]: 38%; Activity ([15]; im, 6 mg/kg, 96 h): Non-Toxic; Activity [11]: Non-Toxic; Activity ([5]; im, 12 mg/kg, 96 h): Non-Toxic; Activity [16]: Non-Toxic; Activity [17]: Toxic; Activity [18]: Toxic |
| C[C@@H]1CC[C@H]2[C@@H](C)C(=O)N(N=C3CCCC3)[C@@H]3O[C@@]4(C)CC[C@@H]1[C@@]23OO4 | 100% | 100% |  | inhibition in vivo at 6 mg/kg [19]: 100%; survival at 96 h ([15]; Swiss, read-out: Activity): 80%; Activity [20]: Toxic; Activity [11]: Non-Toxic |
| C[C@@H]1CC[C@H]2[C@@H](C)C(=O)N(/N=C/c3ccco3)[C@@H]3O[C@@]4(C)CC[C@@H]1[C@@]23OO4 | 100% | 100% | 80% | survival at 96 h ([11]; Swiss, read-out: Activity): 80% |
| C[C@@H]1CC[C@H]2[C@@H](C)C(=O)N(N)[C@@H]3O[C@@]4(C)CC[C@@H]1[C@@]23OO4 | 100% | 100% |  | Activity [21]: Toxic |
| CC(C)=NN1C(=O)[C@H](C)[C@@H]2CC[C@@H](C)[C@@H]3CC[C@@]4(C)OO[C@]32[C@H]1O4 | 100% | 100% |  |  |
| C[C@@H]1CC[C@H]2[C@@H](C)C(=O)N(N=C3CCCCC3)[C@@H]3O[C@@]4(C)CC[C@@H]1[C@@]23OO4 | 100% | 100% | 40% |  |
| C[C@@H]1CC[C@H]2[C@@H](C)C(=O)N(/N=C/c3cccc([N+](=O)[O-])c3)[C@@H]3O[C@@]4(C)CC[C@@H]1[C@@]23OO4 | 100% | 100% |  | Activity [21]: Toxic |
